Experiments:
Format in all cases: in vivo
Settings in all cases: scale 0 to 100
[1] = system: pigweed (Amaranthus retroflexus); experiment: Test D postemergence
From the text: (§1) Seeds of plant species selected from bluegrass (annual bluegrass, Poa annua), blackgrass (Alopecurus myosuroides), canarygrass (Phalaris minor), chickweed (common chickweed, Stellaria media), cutleaf geranium (Geranium dissectum), galium (catchweed bedstraw, Galium aparine), downy bromegrass (Bromus tectorum), field poppy (Papaver rhoeas), field violet (Viola arvensis), green foxtail (Setaria viridis), deadnettle (henbit deadnettle, Lamium amplexicaule), Italian ryegrass (Lolium multiflorum), kochia (Kochia scoparia), lambsquarters (Chenopodium album), oilseed rape (Brassica napus), pigweed (Amaranthus retroflexus), chamomile (scentless chamomile, Matricaria inodora), Russian thistle (Salsola kali), speedwell (bird's-eye speedwell, Veronica persica), spring barley (Hordeum vulgare), spring wheat (Triticum aestivum), wild buckwheat (Polygonum convolvulus), wild mustard (Sinapis arvensis), wild oat (Avenafatua), wild radish (Raphanus raphanistrum), windgrass (Apera spica-venti), winter barley (Hordeum vulgare), and winter wheat (Triticum aestivum) were planted into a silt loam soil and treated preemergence with test chemicals formulated in a non-phytotoxic solvent mixture which included a surfactant.
(§2) At the same time, these species were planted in pots containing Redi-Earth® planting medium (Scotts Company, 14111 Scottslawn Road, Marysville, Ohio 43041) comprising spaghnum peat moss, vermiculite, wetting agent and starter nutrients and treated with postemergence applications of the test chemicals formulated in the same manner. Plants ranged in height from 2 to 18 cm (1- to 4-leaf stage). Treated plants and controls were maintained in a controlled growth environment for 14 to 21 days after which time all species were compared to controls and visually evaluated. Plant response ratings, summarized in Table D, are based on a scale of 0 to 100 where 0 is no effect and 100 is complete control. A dash (-) response means no test result.

[2] = system: spring barley (Hordeum vulgare); experiment: Test D postemergence
From the text: as §1, §2

[3] = system: windgrass (Apera spica-venti); experiment: Test D postemergence
From the text: as §1, §2

[4] = system: johnsongrass (Sorghum halepense); experiment: Test E preemergence
Procedure, shortened: (§3)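 Visual ratings from 0 = no effect to 100 = complete control, scored against untreated controls after 14 to 21 days in the greenhouse. Compounds, in a non-phytotoxic solvent mix with surfactant, went onto silt loam soil right after sowing (preemergence) or onto 2–18 cm plants at the 1- to 4-leaf stage (postemergence).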

[5] = system: wild poinsettia (Euphorbia heterophylla); experiment: Test E preemergence
Procedure, shortened: as §3

[6] = system: Russian thistle (Salsola kali); experiment: Test D postemergence
From the text: as §1, §2

Row | Structure (SMILES) | Plant response rating, Pigweed ([1]; 16 g ai/ha) | Plant response rating, Pigweed ([1]; 31 g ai/ha) | Plant response rating, Pigweed ([1]; 62 g ai/ha) | Plant response rating, Pigweed ([1]; 125 g ai/ha) | Plant response rating, Barley, Spring ([2]; 16 g ai/ha) | Plant response rating, Barley, Spring ([2]; 31 g ai/ha) | Plant response rating, Barley, Spring ([2]; 62 g ai/ha) | Plant response rating, Barley, Spring ([2]; 125 g ai/ha) | Plant response rating, Windgrass ([3]; 16 g ai/ha) | Plant response rating, Windgrass ([3]; 31 g ai/ha) | Plant response rating, Windgrass ([3]; 62 g ai/ha) | Plant response rating, Windgrass ([3]; 125 g ai/ha) | Plant response rating, Johnsongrass ([4]; 16 g ai/ha) | Plant response rating, Johnsongrass ([4]; 31 g ai/ha) | Plant response rating, Johnsongrass ([4]; 62 g ai/ha) | Plant response rating, Johnsongrass ([4]; 125 g ai/ha) | Plant response rating, Poinsettia, Wild ([5]; 16 g ai/ha) | Plant response rating, Poinsettia, Wild ([5]; 31 g ai/ha) | Plant response rating, Poinsettia, Wild ([5]; 62 g ai/ha) | Plant response rating, Poinsettia, Wild ([5]; 125 g ai/ha) | other results
1 | N#Cc1cccc(Oc2ncc(Cl)cn2)c1Oc1ncc(Cl)cn1 [Compound 3, 2,3-bis[(5-chloro-2-pyrimidinyl)oxy]benzonitrile] | 100 | 100 | 100 | 100 | 5 | 10 | 15 | 20 | 10 | 15 | 25 | 30 |  |  |  |  |  |  |  |  | 
2 | Clc1cnc(Oc2cccc(Br)c2Oc2ncc(Cl)cn2)nc1 [Compound 19, 2,2′-[[3-bromo-1,2-phenylene]bis(oxy)]bis[5-chloropyrimidine]] |  |  |  |  |  |  |  |  |  |  |  |  | 0 | 0 | 50 | 100 | 0 | 0 | 15 | 70 | 
3 | Fc1cccc(Oc2ncc(Cl)cn2)c1Oc1ncc(Cl)cn1 [Compound 21, 2,2′-[[3-fluoro-1,2-phenylene]bis(oxy)]bis[5-chloropyrimidine]] |  |  |  |  |  |  |  |  |  |  |  |  | 0 | 30 | 65 | 100 | 0 | 10 | 50 | 60 | 
4 | Fc1cnc(Oc2c(Br)cccc2Oc2ncc(Cl)cn2)nc1 [Compound 22] | 75 | 80 | 75 | 95 | 5 | 10 | 15 | 20 | 5 | 10 | 25 | 35 |  |  |  |  |  |  |  |  | Plant response rating, Russian Thistle ([6]; 16 g ai/ha): 0; Plant response rating, Russian Thistle ([6]; 31 g ai/ha): 5; Plant response rating, Russian Thistle ([6]; 62 g ai/ha): 10; Plant response rating, Russian Thistle ([6]; 125 g ai/ha): 15
